The nature of data set [1]: solubility of sildenafil forms in water. Format: physicochemical.
A further data set is described as follows: solubility in saliva. The data set is classed as physicochemical.

Counter-ions that a name gives are not always drawn.

With `CCCc1nn(C)c2c(=O)[nH]c(-c3cc(S(=O)(=O)N4CCN(C)CC4)ccc3OCC)nc12` [sildenafil citrate], the “solubility of salt form” value in data set [1] (medium not stated) is given as “highly soluble”. As to `CCCc1nn(C)c2c(=O)[nH]c(-c3cc(S(=O)(=O)N4CCN(C)CC4)ccc3OCC)nc12` [sildenafil free base, 5-[2-ethoxy-5-(4-methylpiperazin-1-ylsulphonyl)-phenyl] -1,6-dihydro-1-methyl-3-propylpyrazolo [4,3-d]pyrimidin-7-one], the solubility in saliva entry in the data set “solubility in saliva” is reported as “extremely low solubility”. For the same molecule, the solubility in water entry in data set [1] (water) is on record as “extremely low solubility”.
